Data published in US20160031985A1, “CHARGE-ENGINEERED ANTIBODIES OR COMPOSITIONS OF PENETRATION-ENHANCED TARGETING PROTEINS AND METHODS OF USE” (PERMEON BIOLOGICS, INC., priority 2013, published 2016).

Legend:
Format in all cases: cell-based
AU565 (Her2^+) cells [1] = test: Time course of cellular uptake in mixed cell populations, flow cytometry (Example 6); details: 0.1 μM, untreated 6,081
Procedure: (§1) The media were replaced with serum free media containing 0.1 μM of protein listed below and incubated for 10 minutes, 30 minutes or 4 hours. Cells were washed 3×PBS, trypsinized, stained with Her2 Antibody-APC for 0.5 hours, washed with PBS and then analyzed by flow cytometry with detection of GFP.

[2] = test system: MDA-MB-468 (Her2^−) cells; test: as above; details: Her2− (MDA-MB-468), 0.1 μM, untreated 4,134
Procedure: as §1

AU565 (Her2^+) cells [3] = test: Internalization of GFP proteins by flow cytometry (Example 4); details: 1 μM protein, 2 hours, serum free media, untreated cells 5,713
Procedure: The levels of Her2 expressed on cell surface were measured in flow cytometry after staining the cells with a commercial antibody against Her2, Anti-Her2-APC (BD Bioscience, catalog #340554). MDA-MB-468 cells express an insignificant level of Her2 compared to unstained background and are considered Her2 negative (referred to as Her2), whereas AU565 cells express a high level of Her2 (referred to as Her2^+).
Results: Flow cytometry analysis is indicative of the amount of protein internalized into the cells. […] The median fluorescence values obtained from the flow cytometry peak minus the median fluorescence values of untreated cells (background fluorescence) are shown in FIGS. 10A and 10B.

SKOV-3 cells (Her2^+) = test: Cellular uptake of GFP proteins by fluorescence microscopy; details: 1 μM of proteins, 1 hour
Procedure: These images were taken to assess cellular uptake of these GFP-containing proteins by fluorescence microscopy. The images shown are an overlay of phase contrast and GFP fluorescence images.
In addition, SKOV-3 cells (Her2) were treated with 1 μM of proteins for 1 hour, and then images were taken to assess cellular uptake of GFP proteins by fluorescence microscopy (FIG. 11A).

[4] = test system: MDA-MB-468 (Her2^−) cells; test: Internalization of GFP proteins by flow cytometry (Example 4); details: 1 μM protein, 2 hours, serum free media, untreated cells 4,064
Procedure: MDA-MB-468 cells express an insignificant level of Her2 compared to unstained background and are considered Her2 negative (referred to as Her2), whereas AU565 cells express a high level of Her2 (referred to as Her2^+).
The media were replaced with serum free media containing 1 μM of a protein listed below, and incubated for 2 hours. Cells were washed 3×PBS, trypsinized, fixed with 4% PFA, washed with PBS and then analyzed by flow cytometry with detection of GFP.
Results: Flow cytometry analysis is indicative of the amount of protein internalized into the cells. FIGS. 9A and 9B show the flow cytometry data obtained for different tested samples at various conditions. The median fluorescence values obtained from the flow cytometry peak minus the median fluorescence values of untreated cells (background fluorescence) are shown in FIGS. 10A and 10B. See also Table 7. The first column indicates identifies the GFP-component of the construct used for the particular sample treatment. The second and third columns represents fluorescence in MDA-MB-468 cells following treatment with each of the GFP proteins alone (second column; examples of use of CPMs alone) or with each of the GFP-C6.5 fusion proteins (third column; examples of fusion proteins comprising a target-binding region and a CPM region). The fourth and fifth column fluorescence in AU565 cells following treatment with each of the GFP proteins alone (fourth column; examples of use of CPMs alone) or with each of the GFP-C6.5 fusion proteins (fifth column; examples of fusion proteins comprising a target-binding region and a CPM region).

AU565 (Her2^+) cells [5] = test: Cellular uptake in mixed cell populations, flow cytometry with Her2 Ab-APC gating (Example 5); details: 2 h, mixed cell population; for Median Fluorescence Values, first set: AU565 cells (Her2+), untreated 6,875; for Median Fluorescence Values, second set: Her2+ (AU565), untreated 11,162
Procedure: (§2) The media were replaced with serum free media containing indicated concentrations of protein listed below and incubated for 2 h. Cells were washed 3×PBS, trypsinized, fixed with 4% PFA, stained with Her2 Ab-APC for 0.5 hour, washed with PBS and then analyzed by flow cytometry with detection of GFP.
(§3) The tested proteins of the first and second sets of experiments were applied to the mixed cell population for two hours.
(§4) The above data were also plotted in FIGS. 13A-13H to show the median fluorescence value minus background fluorescence of untreated cells (background adjusted fluorescence) (Y-axis) as a function of concentration (X-axis) for each of the tested proteins in this Example. Cellular uptake of the proteins was measured by GFP fluorescence. Her2 expression level was measured by using a Her2 antibody conjugated with allophycocyanin (APC). Gating was applied to the flow cytometry data to identify Her2^low versus Her2^high populations. […] The Her2^− profiles (diamond) are indicative of the profile of charged GFP alone. The Her2^− profiles (square) are indicative of the profile of the charged GFP in combination with the target-binding region—C6.5 scFv. The data of sfGFP-C6.5 on the Her2^high cells reflects the profile of the target-binding region (C6.5) by itself.

[6] = test system: MDA-MB-468 (Her2^−) cells; test: as above; details: 2 h, mixed cell population; for Median Fluorescence Values, first set: MDA-MB-468 cells (Her2−), untreated 4,303; for Median Fluorescence Values, second set: Her2− (MDA-MB-468), untreated 4,776
Procedure: as §2, §3, §4

Row | Molecule | Internalization over time (GFP fluorescence, flow cytometry) (AU565 (Her2^+) cells [1]; 10 min) | Internalization over time (GFP fluorescence, flow cytometry) (AU565 (Her2^+) cells [1]; 30 min) | Internalization over time (GFP fluorescence, flow cytometry) (AU565 (Her2^+) cells [1]; 4 h) | Internalization over time (GFP fluorescence, flow cytometry) ([2]; 10 min) | Internalization over time (GFP fluorescence, flow cytometry) ([2]; 30 min) | Internalization over time (GFP fluorescence, flow cytometry) ([2]; 4 h) | Median fluorescence (GFP, flow cytometry) (AU565 (Her2^+) cells [3]) | binding and cellular uptake by fluorescence microscopy (SKOV-3 cells (Her2^+)) | Median fluorescence (GFP, flow cytometry) [4] | Median Fluorescence Values, first set (AU565 (Her2^+) cells [5]; 0.03 uM) | Median Fluorescence Values, first set (AU565 (Her2^+) cells [5]; 0.1 uM) | Median Fluorescence Values, first set (AU565 (Her2^+) cells [5]; 0.3 uM) | Median Fluorescence Values, first set (AU565 (Her2^+) cells [5]; 1 uM) | Median Fluorescence Values, first set ([6]; 0.03 uM) | Median Fluorescence Values, first set ([6]; 0.1 uM) | Median Fluorescence Values, first set ([6]; 0.3 uM) | Median Fluorescence Values, first set ([6]; 1 uM) | Median Fluorescence Values, second set ([6]; 0.1 uM) | Median Fluorescence Values, second set ([6]; 0.3 uM) | other results
1 | C6.5-+15GFP: fusion with C6.5 N-terminal to +15GFP; SEQ ID NO: 16 | 37,044 | 61,007 | 184,844 | 13,517 | 17,194 | 96,599 | 2,170,916 | internalized efficiently in the cells | 767,627 | 75,821 | 162,337 | 305,944 | 822,351 | 13,355 | 36,070 | 82,571 | 306,260 | – | – | –
2 | +15GFP-C6.5: fusion of +15GFP (CPM) and anti-Her2 scFv C6.5 via (S4G)6 spacer; SEQ ID NO: 14 | 18,606 | 35,981 | 148,261 | 10,665 | 22,262 | 144,923 | 413,838 | – | 313,629 | 37,663 | 74,673 | 128,374 | 180,065 | 13,012 | 36,343 | 76,116 | 155,734 | – | – | –
3 | sfGFP-C6.5: control fusion of sfGFP and anti-Her2 scFv C6.5, not positively charged; SEQ ID NO: 13 [reference compound] | – | – | – | 4,081 | 3,986 | 4,704 | – | – | 5,632 | – | – | – | – | – | – | – | – | 4,824 | 4,947 | Median Fluorescence Values, second set ([6]; 0.03 uM): 4,460
4 | sfGFP: superfolder GFP with His6 tag, not positively charged; SEQ ID NO: 10 [reference compound] | 5,952 | 6,024 | 5,924 | 3,887 | 4,025 | 4,067 | 5,896 | – | 5,115 | – | – | – | – | – | – | – | – | 4,519 | 5,245 | Median Fluorescence Values, second set (AU565 (Her2^+) cells [5]; 0.1 uM): 10,937; Median Fluorescence Values, second set (AU565 (Her2^+) cells [5]; 0.3 uM): 12,131
5 | +2GFP-C6.5: fusion of +2GFP and C6.5; a or b variant not stated (protein, left off: large carriers; small tags and cut ends) scFv: QVQLLQSGAELKKPGESLKISCKGSGYSFTSYWIAWVRQMPGKGLEYMGLIYPGDSDTKYSPSFQGQVTISVDKSVSTAYLQWSSLKPSDSAVYFCARHDVGYCSSSNCAKWPEYFQHWGQGTLVTVSSGGGGSGGGGSGGGGSQSVLTQPPSVSAAPGQKVTISCSGSSSNIGNNYVSWYQQLPGTAPKLLIYGHTNRPAGVPDRFSGSKSGTSASLAISGFRSEDEADYYCAAWDDSLSGWVFGGGTKLTVLGGHGHHHHHH | – | – | – | – | – | – | – | bound to SKOV-3 cells through Her2 but did not internalize in the cells | – | – | – | – | – | – | – | – | – | – | – | –
